The results in this text go back to ChEMBL document CHEMBL5442741, “ASAP - In vitro kinase profile” (2024).

“And” between values parts separate entries of the source, which are not always exact repeats. Equal entries are not always repeated.

The target in assay [1] is T1, Mitogen-activated protein kinase kinase kinase 5 (Homo sapiens) (UniProt Q99683).
T1 sequence (whole entry): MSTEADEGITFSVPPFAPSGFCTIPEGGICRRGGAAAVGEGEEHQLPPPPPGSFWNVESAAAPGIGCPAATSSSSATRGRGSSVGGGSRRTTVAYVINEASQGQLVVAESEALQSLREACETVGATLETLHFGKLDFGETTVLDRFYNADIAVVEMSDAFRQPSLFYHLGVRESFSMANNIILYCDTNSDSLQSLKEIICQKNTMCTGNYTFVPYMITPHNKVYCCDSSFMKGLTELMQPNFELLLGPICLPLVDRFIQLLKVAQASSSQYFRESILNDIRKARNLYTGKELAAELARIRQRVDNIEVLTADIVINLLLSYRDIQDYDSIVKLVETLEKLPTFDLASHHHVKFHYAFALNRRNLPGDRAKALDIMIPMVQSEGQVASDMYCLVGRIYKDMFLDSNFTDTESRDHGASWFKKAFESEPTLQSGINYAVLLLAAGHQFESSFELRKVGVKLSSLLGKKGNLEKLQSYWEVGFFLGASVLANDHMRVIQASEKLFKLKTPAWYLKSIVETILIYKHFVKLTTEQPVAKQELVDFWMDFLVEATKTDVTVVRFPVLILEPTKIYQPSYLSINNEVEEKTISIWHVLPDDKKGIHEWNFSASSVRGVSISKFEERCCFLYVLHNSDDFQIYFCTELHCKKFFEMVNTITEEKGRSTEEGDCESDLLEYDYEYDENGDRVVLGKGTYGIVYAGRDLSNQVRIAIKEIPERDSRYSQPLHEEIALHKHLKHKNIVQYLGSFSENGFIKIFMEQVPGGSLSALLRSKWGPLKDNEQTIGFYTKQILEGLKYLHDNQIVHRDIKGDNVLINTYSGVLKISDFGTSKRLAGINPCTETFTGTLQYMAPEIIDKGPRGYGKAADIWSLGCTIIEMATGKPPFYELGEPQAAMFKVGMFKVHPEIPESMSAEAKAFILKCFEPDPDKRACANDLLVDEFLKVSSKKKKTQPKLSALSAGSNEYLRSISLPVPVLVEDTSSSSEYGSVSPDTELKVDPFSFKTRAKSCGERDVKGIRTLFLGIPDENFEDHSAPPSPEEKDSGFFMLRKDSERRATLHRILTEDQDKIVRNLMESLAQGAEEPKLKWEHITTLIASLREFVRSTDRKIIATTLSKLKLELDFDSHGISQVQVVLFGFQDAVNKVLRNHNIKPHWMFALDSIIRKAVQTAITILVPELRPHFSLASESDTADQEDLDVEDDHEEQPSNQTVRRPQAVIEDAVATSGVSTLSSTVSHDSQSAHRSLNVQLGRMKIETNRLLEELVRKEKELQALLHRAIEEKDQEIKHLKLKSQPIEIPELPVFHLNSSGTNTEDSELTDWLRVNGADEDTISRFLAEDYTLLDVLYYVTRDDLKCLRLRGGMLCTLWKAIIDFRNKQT
Kind of assay: Enzymatic radiometric [Km ATP] KinaseProfiler LeadHunter assay, kinase: ASK1, catalogue number: 14-606KP The assay has been performed by Eurofins Discovery. The following applies: ATP concentration 200.0 uM, Test compound concentration 10.0 uM.

Assay [2] addresses Tyrosine-protein kinase Lyn (Homo sapiens) (UniProt P07948). The assay is described as follows: Enzymatic radiometric [Km ATP] KinaseProfiler LeadHunter assay, kinase: Lyn, catalogue number: 14-510KP The assay has been performed by Eurofins Discovery. Particulars: ATP concentration 70.0 uM, Test compound concentration 10.0 uM.
Assay [3] deals with CDK9/cyclin T1 (Homo sapiens) (UniProt O60563+P50750). The assay is described as follows: Enzymatic radiometric [Km ATP] KinaseProfiler LeadHunter assay, kinase: CDK9/cyclin T1, catalogue number: 14-685KP The assay has been performed by Eurofins Discovery. It is filed as protein-complex assay. The following applies: ATP concentration 45.0 uM, Test compound concentration 10.0 uM.

The target in assay [4] is Protein kinase C alpha type (Homo sapiens) (UniProt P17252). The assay is described as follows: Enzymatic radiometric [Km ATP] KinaseProfiler LeadHunter assay, kinase: PKC-alpha, catalogue number: 14-484KP The assay has been performed by Eurofins Discovery. Particulars: ATP concentration 45.0 uM, Test compound concentration 10.0 uM.
The target in assay [5] is Serine/threonine-protein kinase 10 (Homo sapiens) (UniProt O94804). Kind of assay: Enzymatic radiometric [Km ATP] KinaseProfiler LeadHunter assay, kinase: LOK, catalogue number: 14-686KP The assay has been performed by Eurofins Discovery. Particulars: ATP concentration 120.0 uM, Test compound concentration 10.0 uM.
Sequence of Serine/threonine-protein kinase 10 (Homo sapiens) (O94804 whole entry, looked up): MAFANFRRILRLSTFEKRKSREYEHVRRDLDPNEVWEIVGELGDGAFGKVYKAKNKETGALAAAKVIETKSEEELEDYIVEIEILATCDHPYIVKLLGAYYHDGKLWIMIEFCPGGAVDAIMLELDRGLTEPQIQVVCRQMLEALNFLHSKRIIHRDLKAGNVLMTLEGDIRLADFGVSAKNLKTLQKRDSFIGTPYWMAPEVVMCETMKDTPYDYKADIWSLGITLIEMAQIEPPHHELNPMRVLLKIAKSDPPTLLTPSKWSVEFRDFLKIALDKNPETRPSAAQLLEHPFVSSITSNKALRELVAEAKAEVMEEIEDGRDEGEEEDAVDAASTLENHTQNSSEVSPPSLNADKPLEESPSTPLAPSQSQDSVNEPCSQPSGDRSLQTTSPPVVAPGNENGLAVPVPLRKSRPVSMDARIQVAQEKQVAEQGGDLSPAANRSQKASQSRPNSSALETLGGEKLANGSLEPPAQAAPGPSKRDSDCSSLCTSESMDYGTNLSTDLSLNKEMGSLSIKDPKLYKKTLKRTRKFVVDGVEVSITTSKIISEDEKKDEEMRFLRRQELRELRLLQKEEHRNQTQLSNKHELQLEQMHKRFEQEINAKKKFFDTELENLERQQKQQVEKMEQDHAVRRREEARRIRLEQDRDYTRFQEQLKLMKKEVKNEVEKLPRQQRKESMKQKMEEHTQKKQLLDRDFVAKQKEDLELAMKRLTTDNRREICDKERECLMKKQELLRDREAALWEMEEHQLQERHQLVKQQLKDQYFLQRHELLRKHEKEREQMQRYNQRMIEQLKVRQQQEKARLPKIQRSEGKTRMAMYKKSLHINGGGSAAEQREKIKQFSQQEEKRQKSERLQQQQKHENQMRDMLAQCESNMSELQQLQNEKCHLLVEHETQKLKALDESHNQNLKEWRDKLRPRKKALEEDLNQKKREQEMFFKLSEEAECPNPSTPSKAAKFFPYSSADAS
Assay [6] addresses Calcium/calmodulin-dependent protein kinase type 1 (Homo sapiens) (UniProt Q14012). Kind of assay: Enzymatic radiometric [Km ATP] KinaseProfiler LeadHunter assay, kinase: CaMKI, catalogue number: 14-663KP The assay has been performed by Eurofins Discovery. Particulars: ATP concentration 200.0 uM, Test compound concentration 10.0 uM.
Assay [7] concerns the target CDK6/cyclin D3 (Homo sapiens) (UniProt P30281+Q00534). Kind of assay: Enzymatic radiometric [Km ATP] KinaseProfiler LeadHunter assay, kinase: CDK6/cyclinD3, catalogue number: 14-519KP The assay has been performed by Eurofins Discovery. In kind it is protein-complex assay. Particulars: ATP concentration 200.0 uM, Test compound concentration 10.0 uM.
The target of assay [8] is Ribosomal protein S6 kinase alpha-1 (Homo sapiens) (UniProt Q15418). The assay is described as follows: Enzymatic radiometric [Km ATP] KinaseProfiler LeadHunter assay, kinase: Rsk1, catalogue number: 14-509KP The assay has been performed by Eurofins Discovery. Particulars: ATP concentration 45.0 uM, Test compound concentration 10.0 uM.
Sequence of Ribosomal protein S6 kinase alpha-1 (Homo sapiens) (Q15418 whole entry): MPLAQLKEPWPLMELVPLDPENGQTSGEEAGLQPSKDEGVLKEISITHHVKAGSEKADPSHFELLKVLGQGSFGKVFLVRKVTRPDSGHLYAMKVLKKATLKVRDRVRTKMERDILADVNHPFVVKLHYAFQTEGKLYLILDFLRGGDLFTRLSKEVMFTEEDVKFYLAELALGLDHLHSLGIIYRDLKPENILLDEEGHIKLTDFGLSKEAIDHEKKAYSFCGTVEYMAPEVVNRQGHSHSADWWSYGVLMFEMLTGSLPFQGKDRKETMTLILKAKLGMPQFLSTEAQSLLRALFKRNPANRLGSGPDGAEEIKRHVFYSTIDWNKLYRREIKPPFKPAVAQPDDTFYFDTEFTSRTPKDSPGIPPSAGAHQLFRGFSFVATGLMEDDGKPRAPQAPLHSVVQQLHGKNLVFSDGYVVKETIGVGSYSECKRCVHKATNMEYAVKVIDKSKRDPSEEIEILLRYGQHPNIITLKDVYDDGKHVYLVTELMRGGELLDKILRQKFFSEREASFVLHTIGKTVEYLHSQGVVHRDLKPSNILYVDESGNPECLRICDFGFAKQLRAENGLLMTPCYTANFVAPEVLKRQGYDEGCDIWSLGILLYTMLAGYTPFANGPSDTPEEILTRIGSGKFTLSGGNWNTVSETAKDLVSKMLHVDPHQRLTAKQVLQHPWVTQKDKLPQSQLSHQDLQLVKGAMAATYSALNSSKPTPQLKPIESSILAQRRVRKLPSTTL

Sequence of Calcium/calmodulin-dependent protein kinase type 1 (Homo sapiens) (Q14012 whole entry, looked up): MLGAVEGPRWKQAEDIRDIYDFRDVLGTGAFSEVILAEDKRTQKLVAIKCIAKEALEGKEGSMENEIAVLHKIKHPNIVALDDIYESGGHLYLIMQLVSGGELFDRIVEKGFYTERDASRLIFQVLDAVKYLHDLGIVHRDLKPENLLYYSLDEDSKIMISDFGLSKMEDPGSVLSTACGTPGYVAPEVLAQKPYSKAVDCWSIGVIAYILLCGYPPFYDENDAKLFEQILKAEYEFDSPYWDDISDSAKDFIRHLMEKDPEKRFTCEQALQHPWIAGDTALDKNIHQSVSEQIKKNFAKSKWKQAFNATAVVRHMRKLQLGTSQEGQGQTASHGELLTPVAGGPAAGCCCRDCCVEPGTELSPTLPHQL
Sequence of Tyrosine-protein kinase Lyn (Homo sapiens) (P07948 2-512 limits assumed): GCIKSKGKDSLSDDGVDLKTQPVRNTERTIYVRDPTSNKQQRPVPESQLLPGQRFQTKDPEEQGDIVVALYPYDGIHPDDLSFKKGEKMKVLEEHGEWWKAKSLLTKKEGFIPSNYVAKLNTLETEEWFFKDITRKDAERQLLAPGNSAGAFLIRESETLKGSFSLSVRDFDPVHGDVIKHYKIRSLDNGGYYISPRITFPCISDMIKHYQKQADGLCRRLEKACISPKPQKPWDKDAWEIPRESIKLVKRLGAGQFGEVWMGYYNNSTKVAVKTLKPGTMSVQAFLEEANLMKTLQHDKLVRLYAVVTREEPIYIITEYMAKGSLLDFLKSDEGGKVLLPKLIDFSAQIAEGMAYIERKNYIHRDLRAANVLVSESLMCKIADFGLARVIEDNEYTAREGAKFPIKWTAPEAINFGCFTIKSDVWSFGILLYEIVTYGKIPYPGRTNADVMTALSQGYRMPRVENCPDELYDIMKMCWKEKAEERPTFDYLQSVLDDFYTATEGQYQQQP

For `CC(C)[C@H](Nc1ncnc2[nH]ccc12)c1ccc2c(c1)S(=O)(=O)CCC2`, the Activity in assay [1] came to 105%; in assay [2], 104%; in assay [3], 112%; in assay [4], 98%; in assay [5], 102%; in assay [6], 92%. Besides, the Activity in assay [7] was 105%; in assay [8], 102%.

As for `Cc1nn(C)cc1-c1cc2c(N[C@H](c3ccc4c(c3)S(=O)(=O)CCC4)C(C)C)ncnc2[nH]1`, the Activity in assay [1] stood at 103%; in assay [2] it was 48%; in assay [3], 57%; in assay [4], 93%; in assay [5] it was 93%; in assay [6], 101%. The Activity amounted to 106% in assay [7] and 110% in assay [8].

As for `CC(C)[C@H](Nc1ncnc2[nH]c(-c3cnn(C)c3C#N)cc12)c1ccc2c(n1)OCCO2`, the Activity was 106% in assay [1]; 79% in assay [2]; 79% in assay [3]; 45% in assay [5]; 104% in assay [6]; 102% in assay [7]. In assay [8], this molecule had an Activity of 120%.

Turning to `CC(C)[C@@H](Nc1ncnc2[nH]ccc12)c1ccc2c(c1)S(=O)(=O)CCC2`, the Activity in assay [1] was determined as 108%; in assay [2], 112%; in assay [3] it was 114%; in assay [4], 104%; in assay [5], 104%; in assay [6], 94%. In addition, the Activity in assay [7] was 99%; in assay [8], 92%.

Consider `CC(C)[C@@H](Nc1ncnc2[nH]c(-c3cnn(C)c3C#N)cc12)c1ccc2c(n1)OCCO2`, for which the Activity in assay [4] is 90% and 99%; in assay [6] it was 104% and 95%.

For the molecule `C[C@H](C(=O)O)[C@@H](NC(=O)c1ncnc2[nH]ccc12)c1ccc(Br)cc1`, the Activity in assay [1] stood at 102%; in assay [2] it was 94%; in assay [3], 103%; in assay [4], 108%; in assay [5], 97%; in assay [6], 101%. In addition, the values for the Activity in assay [7] and in assay [8] were 97% and 88%, respectively.

Consider `CNC(=O)Cn1cc(-c2cc3c(N[C@@H](c4ccc5c(c4)S(=O)(=O)CCC5)C(C)C)ncnc3[nH]2)cn1`, for which the Activity in assay [1] was found to be 103%; in assay [2], 75%; in assay [3], 61%; in assay [4], 95%; in assay [5] it was 83%; in assay [6], 101%. Moreover, the figures for the Activity in assay [7] and in assay [8] were 107% and 94%, respectively.

Regarding `COc1ccc([C@@H](Cc2nnn[nH]2)NC(=O)c2ncnc3[nH]ccc23)cc1`, the Activity in assay [1] worked out at 101%; in assay [2] it was 111%; in assay [3], 117%; in assay [4], 95%; in assay [5], 96%; in assay [6], 100%. Moreover, the Activity in assay [7] worked out at 100%; in assay [8] it was 98%.

Consider `CC(C)[C@@H](Nc1ncnc2[nH]c(C(=O)N[C@@H]3CCN(C)C3)cc12)c1ccc2c(c1)S(=O)(=O)CCC2`, for which the Activity worked out at 105% in assay [1]; 107% in assay [2]; 108% in assay [3]; 101% in assay [4]; 99% in assay [5]; 100% in assay [6]. Moreover, the Activity amounted to 99% in assay [7] and 94% in assay [8].

`Cn1ncc(-c2cc3c(N[C@@H](c4ccc5c(n4)OCCO5)C(C)(C)C)ncnc3[nH]2)c1C#N`: the Activity in assay [1] is 108%; in assay [2], 101%; in assay [3] it was 130%; in assay [4] it was 87%; in assay [5], 122%; in assay [6], 87%. The same molecule showed an Activity in assay [8] of 136%.

On to `COc1ccc([C@H](Cc2nnn[nH]2)NC(=O)c2ncnc3[nH]ccc23)cc1`, for which the Activity worked out at 103% in assay [1]; 108% in assay [2]; 109% in assay [3]; 93% in assay [4]; 102% in assay [5]; 102% in assay [7]. The Activity in assay [8] turned out to be 102%.

In the case of `CNCc1cc(-c2cc3c(N[C@@H](c4ccc5c(c4)S(=O)(=O)CCC5)C(C)C)ncnc3[nH]2)co1`, the Activity amounted to 47% in assay [2]; 40% in assay [3]; 99% in assay [4]; 92% in assay [5]; 87% in assay [6]; 92% in assay [7]. For the same molecule, in assay [8], the Activity was found to be 90%.
